The target in one assay is T1, BCL6 (Homo sapiens, UniProt P41182).
T1 construct: HiBiT-tag knocked into endogenous BCL6 locus using CRISPR; endogenous in cells; host or cells: DHL-4_BCL6_HiBiT cells (CRISPR knock-in)
The experiment in a line: BCL6_HiBiT degradation assay (2 h). The format is cell-based. Particulars: DHL-4_BCL6_HiBiT cells. The essentials:
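DHL-4 cells carrying CRISPR HiBiT knock-in at endogenous BCL6, treated 2 h at 37 °C with 10-point 3-fold dilutions from 1-10 μM. BCL6 level read by Nano-Glo HiBiT lytic luminescence normalized to DMSO; four-parameter fit gives degradation EC50 and Yconstant (% remaining at maximal effect).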
Background: The HiBiT peptide binds its large partner to form an active luciferase.
Take `CN1C(=O)Cc2cc(Nc3nc(N4CCC(Nc5ccc6c(C7CCC(=O)NC7=O)nn(C)c6c5)CC4)ncc3Cl)ccc21` (single isomer, unassigned) [Example 54]: the “YCon (% remaining maximal effect)” value is reported as “(>60%)”.

Staying with this assay, now noted: DHL-4_BCL6_HiBiT cells, read-out: YCon (% remaining maximal effect).
Take `C[C@@H]1CN(c2ccc3c(C4CCC(=O)NC4=O)nn(C)c3c2)C[C@H](C)N1c1ncc(Cl)c(Nc2ccc3c(c2)CC(=O)N3C)n1` (stereo partly drawn) [Example 30, 3-(6-((3R,5S)-4-(5-chloro-4-((1-methyl-2-oxoindolin-5-yl)amino)pyrimidin-2-yl)-3,5-dimethylpiperazin-1-yl)-1-methyl-1H-indazol-3-yl)piperidine-2,6-dione]: the Percent BCL6 remaining at maximal degradation (Ycon) is more than 60%.
As for `CN1C(=O)Cc2cc(Nc3nc(N4CC[C@@H](Nc5ccc6c(C7CCC(=O)NC7=O)nn(C)c6n5)[C@H](O)C4)ncc3Cl)ccc21` (stereo partly drawn) [Example 55, 3-(6-(((3R,4R)-1-(5-chloro-4-((1-methyl-2-oxoindolin-5-yl)amino)pyrimidin-2-yl)-3-hydroxypiperidin-4-yl)amino)-1-methyl-1H-pyrazolo[3,4-b]pyridin-3-yl)piperidine-2,6-dione], the Percent BCL6 remaining at maximal degradation (Ycon) was 20 to 60%.
For `C[C@@H]1CN(c2ncc(Cl)c(Nc3ccc4c(c3)CC(=O)N4CCN3CCOCC3)n2)CC[C@H]1Nc1ccc2c([C@@H]3CCC(=O)NC3=O)nn(C)c2c1` (single isomer, unassigned) [Example 103], the Percent BCL6 remaining at maximal degradation (Ycon) is less than 20%.
As for `C[C@@H]1CN(c2ncc(Cl)c(Nc3ccc4c(c3)CC(=O)N4C)n2)CC[C@H]1Nc1ccc2c([C@@H]3CCC(=O)NC3=O)nn(C)c2c1` (single isomer, unassigned) [Example 72], the Percent BCL6 remaining at maximal degradation (Ycon) was less than 20%.
As to `CN1C(=O)Cc2cc(Nc3nc(N4CCCN(c5ccc6c(C7CCC(=O)NC7=O)nn(C)c6c5)CC4)ncc3Cl)ccc21` (stereo not drawn) [Example 32, 3-(6-(4-(5-chloro-4-((1-methyl-2-oxoindolin-5-yl)amino)pyrimidin-2-yl)-1,4-diazepan-1-yl)-1-methyl-1H-indazol-3-yl)piperidine-2,6-dione], the Percent BCL6 remaining at maximal degradation (Ycon) is more than 60%.
On the same count and under the same terms, the result for `CO[C@@H]1CN(c2ncc(Cl)c(Nc3ccc4c(c3)CC(=O)N4C)n2)CC[C@H]1Nc1ccc2c(C3(C)CCC(=O)NC3=O)nn(C)c2c1` (stereo partly drawn) [Example 154, 3-(6-(((3R,4R)-1-(5-chloro-4-((1-methyl-2-oxoindolin-5-yl)amino)pyrimidin-2-yl)-3-methoxypiperidin-4-yl)amino)-1-methyl-1H-indazol-3-yl)-3-methylpiperidine-2,6-dione] reads 20 to 60%; that for `Cn1nc(C2CCC(=O)NC2=O)c2ccc(N3CCC(Nc4ncc(Cl)c(Nc5ccc6c(c5)N(CCC(C)(C)O)C(=O)C6)n4)CC3)cc21` (stereo not drawn) [Example 8, 3-(6-(4-((5-chloro-4-((1-(3-hydroxy-3-methylbutyl)-2-oxoindolin-6-yl)amino)pyrimidin-2-yl)amino)piperidin-1-yl)-1-methyl-1H-indazol-3-yl)piperidine-2,6-dione], more than 60%; that for `C[C@@H]1CN(c2ncc(Cl)c(Nc3ccc4c(c3F)CC(=O)N4C)n2)CC[C@H]1Nc1ccc2c([C@@H]3CCC(=O)NC3=O)nn(C)c2c1` (single isomer, unassigned) [Example 100], less than 20%.
In the case of `C[C@@H]1CN(c2ncc(Cl)c(Nc3ccc4c(c3)CC(=O)N4CCCC(F)(F)F)n2)CC[C@H]1Nc1ccc2c(C3CCC(=O)NC3=O)nn(C)c2c1` (stereo partly drawn) [Example 119, 3-(6-(((3R,4R)-1-(5-chloro-4-((2-oxo-1-(4,4,4-trifluorobutyl)indolin-5-yl)amino)pyrimidin-2-yl)-3-methylpiperidin-4-yl)amino)-1-methyl-1H-indazol-3-yl)piperidine-2,6-dione], the Percent BCL6 remaining at maximal degradation (Ycon) was less than 20%.
Same read-out and setting: as for `CN1C(=O)Cc2cc(Nc3nc(NC4CCN(c5ccc6c(C7CCC(=O)NC7=O)nn(C)c6c5)C(=O)C4)ncc3Cl)ccc21` (stereo not drawn) [Example 126, 3-(6-(4-((5-chloro-4-((1-methyl-2-oxoindolin-5-yl)amino)pyrimidin-2-yl)amino)-2-oxopiperidin-1-yl)-1-methyl-1H-indazol-3-yl)piperidine-2,6-dione], the figure is 20 to 60%; as for `C[C@@H]1CN(c2ncc(C#N)c(Nc3ccc4c(c3)CC(=O)N4C)n2)CC[C@H]1Nc1ccc2c(C3CCC(=O)NC3=O)nn(C)c2c1` (stereo partly drawn) [Example 113, 2-((3R,4R)-4-((3-(2,6-dioxopiperidin-3-yl)-1-methyl-1H-indazol-6-yl)amino)-3-methylpiperidin-1-yl)-4-((1-methyl-2-oxoindolin-5-yl)amino)pyrimidine-5-carbonitrile], less than 20%; as for `C[C@H]1C[C@@H](N(C)c2ccc3c(C4CCC(=O)NC4=O)nn(C)c3c2)CCN1c1ncc(Cl)c(Nc2ccc3c(c2)CC(=O)N3C)n1` (stereo partly drawn) [Example 24, 3-(6-(((2S,4S)-1-(5-chloro-4-((1-methyl-2-oxoindolin-5-yl)amino)pyrimidin-2-yl)-2-methylpiperidin-4-yl)(methyl)amino)-1-methyl-1H-indazol-3-yl)piperidine-2,6-dione], more than 60%.
Turning to `C[C@H]1C[C@@H](Nc2ccc3c(C4CCC(=O)NC4=O)nn(C)c3c2)CCN1c1ncc(Cl)c(Nc2ccc3c(c2)CC(=O)N3C)n1` (stereo partly drawn) [Example 19, 3-(6-(((2S,4S)-1-(5-chloro-4-((1-methyl-2-oxoindolin-5-yl)amino)pyrimidin-2-yl)-2-methylpiperidin-4-yl)amino)-1-methyl-1H-indazol-3-yl)piperidine-2,6-dione], the Percent BCL6 remaining at maximal degradation (Ycon) fell in the range of 20 to 60%.
For the compound `C[C@@H]1C[C@H](Nc2ccc3c(C4CCC(=O)NC4=O)nn(C)c3c2)CCN1c1ncc(Cl)c(Nc2ccc3c(c2)CC(=O)N3C)n1` (stereo partly drawn) [Example 22, 3-(6-(((2R,4R)-1-(5-chloro-4-((1-methyl-2-oxoindolin-5-yl)amino)pyrimidin-2-yl)-2-methylpiperidin-4-yl)amino)-1-methyl-1H-indazol-3-yl)piperidine-2,6-dione], the Percent BCL6 remaining at maximal degradation (Ycon) was more than 60%.
`CN1C(=O)Cc2cc(Nc3nc(N4CCC(c5ccc6c(N7CCC(=O)NC7=O)nn(C)c6c5)CC4)ncc3Cl)ccc21` [Example 134, 1-(6-(1-(5-chloro-4-((1-methyl-2-oxoindolin-5-yl)amino)pyrimidin-2-yl)piperidin-4-yl)-1-methyl-1H-indazol-3-yl)dihydropyrimidine-2,4(1H,3H)-dione]: the Percent BCL6 remaining at maximal degradation (Ycon) is more than 60%.
Turning to `C[C@@H]1CN(c2ncc(Cl)c(Nc3cc(F)c4c(c3)CC(=O)N4C)n2)CC[C@H]1Nc1ccc2c([C@H]3CCC(=O)NC3=O)nn(C)c2c1` (single isomer, unassigned) [Example 96], the Percent BCL6 remaining at maximal degradation (Ycon) was less than 20%.
On the same count and under the same terms, as for `CN1C(=O)Cc2cc(Nc3nc(N4CC[C@H](Nc5ccc6c(C7CCC(=O)NC7=O)nn(C)c6c5)[C@@H](F)C4)ncc3Cl)ccc21` (stereo partly drawn) [Example 42, 3-(6-(((3S,4S)-1-(5-chloro-4-((1-methyl-2-oxoindolin-5-yl)amino)pyrimidin-2-yl)-3-fluoropiperidin-4-yl)amino)-1-methyl-1H-indazol-3-yl)piperidine-2,6-dione], the figure is 20 to 60%.
Turning to `CN1C(=O)Cc2cc(Nc3nc(N(C)C4CCN(c5cnc6c(C7CCC(=O)NC7=O)nn(C)c6c5)CC4)ncc3Cl)ccc21` (stereo not drawn) [Example 59, 3-(6-(4-((5-chloro-4-((1-methyl-2-oxoindolin-5-yl)amino)pyrimidin-2-yl)(methyl)amino)piperidin-1-yl)-1-methyl-1H-pyrazolo[4,3-b]pyridin-3-yl)piperidine-2,6-dione], the Percent BCL6 remaining at maximal degradation (Ycon) is more than 60%.
Regarding `CN1C(=O)Cc2cc(Nc3nc(N(C)C4CC5CCC(C4)N5c4ccc5c(C6CCC(=O)NC6=O)nn(C)c5c4)ncc3Cl)ccc21` [Example 15, 3-(6-((1R,3s,5S)-3-((5-chloro-4-((1-methyl-2-oxoindolin-5-yl)amino)pyrimidin-2-yl)(methyl)amino)-8-azabicyclo[3.2.1]octan-8-yl)-1-methyl-1H-indazol-3-yl)piperidine-2,6-dione], the Percent BCL6 remaining at maximal degradation (Ycon) is more than 60%.
For the compound `Cn1nc(C2CCC(=O)NC2=O)c2ccc(NC3CCN(c4ncc(Cl)c(Nc5ccc6c(c5)CC(=O)N6CCO)n4)CC3)cc21` (stereo not drawn) [Example 41, 3-[6-[[1-[5-chloro-4-[[1-(2-hydroxyethyl)-2-oxo-indolin-5-yl]amino]pyrimidin-2-yl]-4-piperidyl]amino]-1-methyl-indazol-3-yl]piperidine-2,6-dione], the Percent BCL6 remaining at maximal degradation (Ycon) lay in the range of 20 to 60%.
Regarding `CC(C)N1C(=O)Cc2cc(Nc3nc(N4CC[C@@H](Nc5ccc6c(C7CCC(=O)NC7=O)nn(C)c6c5)[C@H](C)C4)ncc3Cl)ccc21` (stereo partly drawn) [Example 115, 3-(6-(((3R,4R)-1-(5-chloro-4-((1-isopropyl-2-oxoindolin-5-yl)amino)pyrimidin-2-yl)-3-methylpiperidin-4-yl)amino)-1-methyl-1H-indazol-3-yl)piperidine-2,6-dione], the Percent BCL6 remaining at maximal degradation (Ycon) was less than 20%.
For `C[C@H]1C[C@H](N(C)c2ccc3c([C@H]4CCC(=O)NC4=O)nn(C)c3c2)CCN1c1ncc(Cl)c(Nc2ccc3c(c2)CC(=O)N3C)n1` (single isomer, unassigned) [Example 87], the Percent BCL6 remaining at maximal degradation (Ycon) is more than 60%.
Consider `C[C@@H]1CN(c2ncc(Cl)c(Nc3cc(F)c4c(c3)CC(=O)N4C)n2)CC[C@H]1Nc1ccc2c(C3CCC(=O)NC3=O)nn(C)c2c1` (stereo partly drawn) [Example 95, 3-(6-(((3R,4R)-1-(5-chloro-4-((7-fluoro-1-methyl-2-oxoindolin-5-yl)amino)pyrimidin-2-yl)-3-methylpiperidin-4-yl)amino)-1-methyl-1H-indazol-3-yl)piperidine-2,6-dione], for which the Percent BCL6 remaining at maximal degradation (Ycon) is less than 20%.

The values are drawn from patent US12404239B2, “Modulators of BCL6 as ligand directed degraders” (Celgene Corporation, priority 2022, dated 2025).
